Laboratory results published in patent US20250122218A1, “MODULATORS OF CYSTIC FIBROSIS TRANSMEMBRANE CONDUCTANCE REGULATOR” (Vertex Pharmaceuticals Incorporated, priority 2022, published 2025).

Target: T1, CFTR in F508del/MF-HBE cells (Homo sapiens, UniProt P13569, DEL508-508)
T1 construct: human bronchial epithelial (HBE) cells derived from CF subjects heterozygous for F508del and a minimal function CFTR mutation; endogenous in cells; host or cells: primary human bronchial epithelial cells from CF subjects (F508del/MF-HBE)
T1 sequence (P13569 with tags, fused parts or gaps DEL508-508): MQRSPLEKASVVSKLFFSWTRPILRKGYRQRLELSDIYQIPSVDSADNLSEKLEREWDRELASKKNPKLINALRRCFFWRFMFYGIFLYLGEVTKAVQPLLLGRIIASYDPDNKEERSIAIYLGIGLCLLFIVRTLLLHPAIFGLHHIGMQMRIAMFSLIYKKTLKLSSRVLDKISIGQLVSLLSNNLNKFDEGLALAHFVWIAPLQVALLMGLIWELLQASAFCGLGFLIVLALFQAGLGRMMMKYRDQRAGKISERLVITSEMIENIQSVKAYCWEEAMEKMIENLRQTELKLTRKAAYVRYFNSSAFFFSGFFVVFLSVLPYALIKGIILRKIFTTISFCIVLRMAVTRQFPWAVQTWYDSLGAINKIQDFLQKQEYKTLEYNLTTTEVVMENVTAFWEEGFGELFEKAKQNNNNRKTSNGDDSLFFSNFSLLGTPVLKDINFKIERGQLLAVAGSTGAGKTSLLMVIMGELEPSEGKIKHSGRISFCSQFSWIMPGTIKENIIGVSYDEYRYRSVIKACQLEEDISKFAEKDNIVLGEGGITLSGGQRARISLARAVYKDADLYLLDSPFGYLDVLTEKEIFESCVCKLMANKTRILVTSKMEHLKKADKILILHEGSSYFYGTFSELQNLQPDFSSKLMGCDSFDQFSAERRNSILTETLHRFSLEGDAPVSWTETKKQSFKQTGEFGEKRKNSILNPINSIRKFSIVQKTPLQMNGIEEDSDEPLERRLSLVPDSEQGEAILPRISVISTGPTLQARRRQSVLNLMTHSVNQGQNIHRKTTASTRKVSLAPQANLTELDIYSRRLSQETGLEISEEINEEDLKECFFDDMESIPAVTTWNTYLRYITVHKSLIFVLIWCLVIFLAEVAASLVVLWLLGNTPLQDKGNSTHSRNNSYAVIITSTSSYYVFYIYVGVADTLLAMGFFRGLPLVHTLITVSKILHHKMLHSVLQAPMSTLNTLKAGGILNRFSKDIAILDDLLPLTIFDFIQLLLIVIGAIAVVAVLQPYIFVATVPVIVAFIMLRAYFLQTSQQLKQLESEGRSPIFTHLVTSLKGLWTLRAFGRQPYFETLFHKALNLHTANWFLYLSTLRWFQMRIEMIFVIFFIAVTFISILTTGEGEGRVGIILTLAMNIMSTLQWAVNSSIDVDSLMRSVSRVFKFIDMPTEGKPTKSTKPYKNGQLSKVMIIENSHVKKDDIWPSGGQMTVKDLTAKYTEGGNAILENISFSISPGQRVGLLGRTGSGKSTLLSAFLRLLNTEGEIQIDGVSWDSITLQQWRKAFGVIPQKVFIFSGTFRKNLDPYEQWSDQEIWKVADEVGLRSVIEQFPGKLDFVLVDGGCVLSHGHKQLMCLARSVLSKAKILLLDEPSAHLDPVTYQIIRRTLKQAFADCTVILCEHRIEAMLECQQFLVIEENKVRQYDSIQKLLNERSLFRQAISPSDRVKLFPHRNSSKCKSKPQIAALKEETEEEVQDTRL
Assay: Ussing chamber assay of CFTR-mediated short-circuit currents (identification of potentiator compounds)
Format: cell-based
Conditions: potentiator incubated 18-24 hours at 37° C. in combination with 10 μM corrector, in the presence of 20% human serum, CFTR-mediated ISC
In short: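 F508del/MF-HBE cultures were preincubated 18-24 h at 37° C with potentiator plus 10 μM of a fixed corrector compound in 20% human serum; compounds were kept present during measurement. ISC was recorded under voltage clamp (0 mV, 37° C, amiloride apical) and taken as the 20 μM forskolin peak minus the current after inhibitor cocktail.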

| EC50 [nM] | Compound |
| --- | --- |
| < 500 | Nc1cc(C(F)(F)F)c2nc1-c1nnc(o1)[C@@](O)(C(F)(F)F)CCCCCN(Cc1ccc(OC(F)F)c(F)c1)C2=O [Compound 267, (6R)-17-amino-12-[[4-(difluoromethoxy)-3-fluoro-phenyl]methyl]-6-hydroxy-6,15-bis(trifluoromethyl)-19-oxa-3,4,12,18-tetrazatricyclo [12.3.1.12,5] nonadeca-1(18),2,4,14,16-pentaen-13-one] |
| < 500 | Nc1cc(C(F)(F)F)c2nc1-c1nnc(o1)[C@@](O)(C(F)(F)F)CCCCCN(Cc1ccc(-c3ccccc3)cc1)C2=O [Compound 173, (6R)-17-amino-6-hydroxy-12-[(4-phenylphenyl)methyl]-6,15-bis (trifluoromethyl)-19-oxa-3,4,12,18-tetrazatricyclo [12.3.1.12,5] nonadeca-1(18),2,4,14,1 6-pentaen-13-one] |
| < 500 | Nc1cc(C(F)(F)F)c2nc1-c1nnc(o1)C(O)(C(F)(F)F)CCCCN(C1CC(F)(F)C1)C2=O (single isomer, unassigned) [Compound 198, 16-amino-11-(3,3-difluorocyclobutyl)-6-hydroxy-6,14-bis(trifluoromethyl)-18-oxa-3,4,11,17-tetrazatricyclo[11.3.1.12,5]octadeca-1(17),2,4,13,15-pentaen-12-one] |
| < 500 | Nc1cc(C(F)(F)F)c2nc1-c1nnc(o1)C(O)(C(F)(F)F)CCCCCCC2(O)C(F)(F)F (single isomer, unassigned) [Compound 27, 17-amino-6,13,15-tris(trifluoromethyl)-19-oxa-3,4,18-triazatricyclo[12.3.1.12,5]nonadeca-1(18),2,4,14,16-pentaene-6,13-diol] |
| < 500 | Nc1cc(C(F)(F)F)c2nc1-c1nnc(o1)[C@@](O)(C(F)(F)F)CCCCCN(Cc1cc(C3CCC3)ccc1F)C2=O [Compound 260, (6R)-17-amino-12-[(5-cyclobutyl-2-fluoro-phenyl)methyl]-6-hydroxy-6,15-bis(trifluoromethyl)-19-oxa-3,4,12,18-tetrazatricyclo [12.3.1.12,5] nonadeca-1(18),2,4,14,16-pentaen-13-one] |
| < 500 | Nc1cc(C(F)(F)F)c2nc1-c1nnc(o1)[C@@](O)(C(F)(F)F)CCCCCN(C13CC(C1)C3)C2=O [Compound 86, (6R)-17-Amino-12-(1-bicyclo[1.1.1]pentanyl)-6-hydroxy-6,15-bis (trifluoromethyl)-19-oxa-3,4,12,18-tetrazatricyclo [12.3.1.12,5] nonadeca-1(18),2,4,14,1 6-pentaen-13-one] |
| < 500 | Nc1cc(C(F)(F)F)c2nc1-c1nnc(o1)[C@@](O)(C(F)(F)F)CCCCCN(Cc1ccc(F)cc1)C2=O [Compound 136, (6R)-17-amino-12-[(4-fluorophenyl)methyl]-6-hydroxy-6,15-bis (trifluorom ethyl)-19-oxa-3,4,12,18-tetrazatricyclo [12.3.1.12,5] nonadeca-1(18),2,4,14,1 6-pentaen-13-one] |
| < 500 | Nc1cc(C(F)(F)F)c2nc1-c1nnc(o1)C(O)(C(F)(F)F)c1cc(ccc1F)C=CCCC2=O (single isomer, unassigned) [Compound 60, 20-amino-8-fluoro-6-hydroxy-6,18-bis(trifluoromethyl)-23-oxa-3,4,21-triazatetracyclo[15.3.1.12,5.17,11]tricosa-1(21),2,4,7(22),8,10,12,17,19-nonaen-16-one] |
| < 500 | Nc1cc(C(F)(F)F)c2nc1-c1nnc(o1)[C@@](O)(C(F)(F)F)CCCCCN(CC1CCC(F)(F)CC1)C2=O [Compound 242, (6R)-17-amino-12-[(4,4-difluorocyclohexyl)methyl]-6-hydroxy-6,15-bis(trifluoromethyl)-19-oxa-3,4,12,18-tetrazatricyclo [12.3.1.12,5] nonadeca-1(18),2,4,14,16-pentaen-13-one] |
| < 500 | Nc1cc(C(F)(F)F)c2nc1-c1nnc(o1)[C@@](O)(C(F)(F)F)CCCCCN(Cc1ccc(OC(F)(F)F)c(Cl)c1)C2=O [Compound 153, (6R)-17-amino-12-[[3-chloro-4-(trifluoromethoxy)phenyl]methyl]-6-hydroxy-6,15-bis(trifluoromethyl)-19-oxa-3,4,12,18-tetrazatricyclo [12.3.1.12,5] nonadeca-1(18),2,4,14,1 6-pentaen-13-one] |

Second part, the molecule before the results:

| Compound | EC50 [nM] |
| --- | --- |
| Nc1cc(C(F)(F)F)c2nc1-c1nnc(o1)[C@@](O)(C(F)(F)F)CCCCCN(Cc1cccc(C3CC3)c1)C2=O [Compound 231, (6R)-17-amino-12-[(3-cyclopropylphenyl)methyl]-6-hydroxy-6,15-bis(trifluoromethyl)-19-oxa-3,4,12,18-tetrazatricyclo [12.3.1.12,5] nonadeca-1(18),2,4,14,16-pentaen-13-one] | < 500 |
| Nc1cc(C(F)(F)F)c2nc1-c1nnc(o1)C(O)(C(F)(F)F)CCCCN(C1CC(F)(F)C1)C2=O (single isomer, unassigned) [Compound 199, 16-amino-11-(3,3-difluorocyclobutyl)-6-hydroxy-6,14-bis(trifluoromethyl)-18-oxa-3,4,11,17-tetrazatricyclo[11.3.1.12,5]octadeca-1(17),2,4,13,15-pentaen-12-one] | > 1000 |
| C[C@@H](c1ccc(OC(F)(F)F)cc1)N1CCCCC[C@](O)(C(F)(F)F)C2=NN=C(O2)c2nc(c(C(F)(F)F)cc2N)C1=O [Compound 154, (6R)-17-amino-6-hydroxy-12-[(1S)-1-[4-(trifluoromethoxy)phenyl]ethyl]-6,15-bis (trifluoromethyl)-19-oxa-3,4,12,18-tetrazatricyclo [12.3.1.12,5] nonadeca-1(18),2,4,14,1 6-pentaen-13-one] | < 500 |
| Nc1cc(C(F)(F)F)c2nc1-c1nnc(o1)[C@@](O)(C(F)(F)F)CCCCCN(CC1CC1)C2=O [Compound 83, (6R)-17-Amino-12-(cyclopropylmethyl)-6-hydroxy-6,15-bis(trifluoromethyl)-19-oxa-3,4,12,18-tetrazatricyclo [12.3.1.12,5] nonadeca-1(18),2,4,14,1 6-pentaen-13-one] | < 500 |
| COc1ccc(CN2CCCCC[C@](O)(C(F)(F)F)C3=NN=C(O3)c3nc(c(C(F)(F)F)cc3N)C2=O)c(F)c1F [Compound 175, (6R)-17-amino-12-[(2,3-difluoro-4-methoxy-phenyl)methyl]-6-hydroxy-6,15-bis (trifluoromethyl)-19-oxa-3,4,12,18-tetrazatricyclo [12.3.1.12,5] nonadeca-1(18),2,4,14,1 6-pentaen-13-one] | < 500 |
| CC(C)(C)c1cccc(CN2CCCCC[C@](O)(C(F)(F)F)C3=NN=C(O3)c3nc(c(C(F)(F)F)cc3N)C2=O)c1 [Compound 221, (6R)-17-amino-12-[(3-tert-butylphenyl)methyl]-6-hydroxy-6,15-bis(trifluoromethyl)-19-oxa-3,4,12,18-tetrazatricyclo [12.3.1.12,5] nonadeca-1(18),2,4,14,16-pentaen-13-one] | < 500 |
| Nc1cc(C(F)(F)F)c2nc1-c1nnc(o1)[C@@](O)(C(F)(F)F)CCCCCN(C1CC3(C1)CC(F)(F)C3)C2=O [Compound 95, (6R)-17-Amino-12-(2,2-difluorospiro [3.3]heptan-6-yl)-6-hydroxy-6,15-bis (trifluoromethyl)-19-oxa-3,4,12,18-tetrazatricyclo [12.3.1.12,5] nonadeca-1(18),2,4,14,1 6-pentaen-13-one] | < 500 |
| CC(=O)N1CC2(CC(N3CCCCC[C@](O)(C(F)(F)F)C4=NN=C(O4)c4nc(c(C(F)(F)F)cc4N)C3=O)C2)C1 [Compound 190, (6R)-12-(2-acetyl-2-azaspiro[3.3]heptan-6-yl)-17-amino-6-hydroxy-6,15-bis(trifluoromethyl)-19-oxa-3,4,12,18-tetrazatricyclo[12.3.1.12,5]nonadeca-1(18),2,4,14,16-pentaen-13-one] | > 1000 |
| Nc1cc(C(F)(F)F)c2nc1-c1nnc(o1)[C@@](O)(C(F)(F)F)CCCC(F)(F)CCC2=O [Compound 38, (6R)-17-amino-10,10-difluoro-6-hydroxy-6,15-bis(trifluoromethyl)-19-oxa-3,4,18-triazatricyclo[12.3.1.12,5]nonadeca-1(18),2,4,14,16-pentaen-13-one] | < 500 |
| Nc1cc(C(F)(F)F)c2nc1-c1nnc(o1)[C@@](O)(C(F)(F)F)CCCCCN(Cc1ccc(OC(F)(F)C(F)F)cc1)C2=O [Compound 161, (6R)-17-amino-6-hydroxy-12-[[4-(1,1,2,2-tetrafluoroethoxy)phenyl]methyl]-6,15-bis (trifluoromethyl)-19-oxa-3,4,12,18-tetrazatricyclo [12.3.1.12,5] nonadeca-1(18),2,4,14,1 6-pentaen-13-one] | < 500 |
| CC(C)(C1CC1)N1CCCCC[C@](O)(C(F)(F)F)C2=NN=C(O2)c2nc(c(C(F)(F)F)cc2N)C1=O [Compound 218, (6R)-17-amino-12-(1-cyclopropyl-1-methyl-ethyl)-6-hydroxy-6,15-bis(trifluoromethyl)-19-oxa-3,4,12,18-tetrazatricyclo [12.3.1.12,5] nonadeca-1(18),2,4,14,16-pentaen-13-one] | < 500 |
| Nc1cc(C(F)(F)F)c2nc1-c1nnc(o1)[C@@](O)(C(F)(F)F)CCCCCCC2=NO (single isomer, unassigned) [Compound 31] | < 500 |
| Nc1cc(C(F)(F)F)c2nc1-c1nnc(o1)[C@@](O)(C(F)(F)F)CCCCCN(C13CC(F)(C1)C3)C2=O [Compound 121, (6R)-17-Amino-12-(3-fluoro-1-bicyclo[1.1.1]pentanyl)-6-hydroxy-6,15-bis (trifluorom ethyl)-19-oxa-3,4,12,18-tetrazatricyclo [12.3.1.12,5] nonadeca-1(18),2,4,14,1 6-pentaen-13-one] | < 500 |
